The nature of the series: Apparent permeability across apical to basolateral side in human Caco-2 cells measured after 60 to 120 mins. As to conditions: time 60-120 min. Format: ADME, cell-based. On the technique in general: Caco-2 cells form a polarised layer with tight junctions and transporters.

For 1 compound, permeability results are on record in ChEMBL document CHEMBL5036305, “Modulation of the Passive Permeability of Semipeptidic Macrocycles: N- and C-Methylations Fine-Tune Conformation and Properties” (J Med Chem, 2021).

Consider `CC(C)CN1CC(=O)N[C@@H](Cc2ccccc2)C(=O)NCCC[C@@H](C)C(=O)N[C@@H](C)C1=O`, for which the permeability entry is “Permeable”.
